Assay results published in patent US20170209364A1, “Method For Treating The Appearance Of Thinning Hair” (priority 2016, published 2017).

What was measured:
5-α reductase enzyme = assay: 5-α reductase inhibition: [14C]-testosterone metabolism to DHT in cultured cells (TLC/autoradiography); assay type: cell-based; conditions: Finasteride 1 × 10^−5 M (reference)
Procedure: Cells were seeded in a 24-well plate and cultured for 24 hours in culture medium. […] Cells were then treated with assay medium containing [^14C]-testosterone and containing the test compound, the association or the reference and the cells were incubated for 24 hours. The culture supernatants were then collected for testosterone metabolism analysis and a standard MTT reduction assay was performed on the cell layers (cell viability assessment).
All experimental conditions were performed in n=3.
The steroid molecules from supernatants were extracted with a chloroform/methanol mix. The organic phase was collected and the different molecular species (testosterone metabolites) were separated by thin layer chromatography (TLC) and using a solvent system containing dichloromethane, ethyl acetate and methanol.
An autoradiography was performed on the chromatography and the transformed testosterone was estimated by densitometric analysis of the different spots corresponding to testosterone metabolites (Packard Cyclone Phosphorlmager and Fujifilm Multigauge software).

Procedure for in vitro: Cells were seeded in a 24-well plate and cultured for 24 hours in culture medium.
At the end of incubation, the cells were incubated with MTT (tetrazolium salt) reduced in blue formazan crystals by succinate dehydrogenase (mitochondrial enzyme). This transformation is proportional to the enzyme activity. After cell dissociation and formazan crystal solubilization using DMSO, the optical density (OD) of the extracts at 540 nm, proportional to the number of living cells and their metabolic activity, was recorded with a microplate reader (VERSAmax, Molecular Devices). The equation used for measuring cell viability is as follows: viability (%)=(OD sample/OD control)×100.
Dermal papilla cell viability is measured with a standard MTT assay (via ASTM E2526-08(2013)).

With CC(C)(C)NC(=O)[C@H]1CC[C@H]2[C@@H]3CC[C@H]4NC(=O)C=C[C@]4(C)[C@H]3CC[C@]12C [Finasteride, finasteride] the “DHT/Testosterone ratio as % of Control” value (5-α reductase enzyme) was 28% and the viability at 48 h (in vitro) was 101%.
